The test has as its target T1, AXL kinase (Homo sapiens, UniProt P30530).
T1 construct: purchased Carna 08-107
T1 sequence (P30530 473-894 limits assumed): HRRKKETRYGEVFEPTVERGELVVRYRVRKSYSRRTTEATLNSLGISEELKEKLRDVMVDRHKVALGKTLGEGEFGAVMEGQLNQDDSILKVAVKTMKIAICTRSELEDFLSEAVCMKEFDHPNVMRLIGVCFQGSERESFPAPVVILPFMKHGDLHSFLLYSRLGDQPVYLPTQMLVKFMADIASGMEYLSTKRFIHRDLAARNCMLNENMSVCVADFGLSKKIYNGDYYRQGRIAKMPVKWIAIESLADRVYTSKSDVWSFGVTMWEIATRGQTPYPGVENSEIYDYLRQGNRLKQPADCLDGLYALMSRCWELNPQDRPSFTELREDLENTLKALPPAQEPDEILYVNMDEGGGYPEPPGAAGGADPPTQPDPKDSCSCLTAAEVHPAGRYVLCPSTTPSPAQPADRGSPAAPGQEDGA
Nature of the test: Inhibitory activity of compound against AXL kinase (HTRF KinEASE). Format: biochemical. The settings on record: AXL enzyme (Carna, 08-107), ATP 15 μM; "<" means below detection limit of the test. As for the experimental part:
a) AXL enzyme (Carna, 08-107) configuration and addition: a 1×enzyme buffer (200 μL of Enzymatic buffer kinase 5×, 10 μL of 500 mM MgCl2, 10 μL of 100 mM DTT and 6.26 μL of 2500 nM SEB are added with […] of H2O, and prepared into 1 ml of 1× enzyme buffer) is used. AXL enzyme is diluted from 33.33 ng/uL to 0.027 ng/μL (1.67×, final conc.=0.016 ng/uL), a BioTek (MultiFlo FX) automatic liquid dispenser is used, and 6 μL of enzyme solution having a 1.67-fold final concentration is added respectively to compound wells and positive control wells; and 6 μL of 1×Enzymatic buffer is added to negative control wells.
b) Compound preparation and addition: the compounds and positive drugs prepared in the examples are diluted from 10 mM to 100 μM by DMSO, and titrated with a compound titrator (Tecan, D300e). The titrated solution is automatically sprayed by the titrator to each well to reach a required concentration, wherein the first concentration is 1 μM, and after ½ log dilution, a total of 8 concentrations are obtained. The resulting mixture is centrifuged at 2500 rpm for 30 s and incubated at room temperature for 15 min.
c) Preparation and addition of ATP and substrate: ATP (Sigma, A7699) is diluted with 1× enzyme buffer from 10 mM to 75 μM (5×), and the final concentration is 15 μM; the substrate TK Substrate 3-biotin (Cisbio, 61TK0BLC) is diluted with 1× enzyme buffer from 500 μM to 5 μM (5×), andthe final concentration is […]; ATP and the substrate are mixed in equal volume to obtain a mixed solution; the mixed solution is added to each well at 4 μL by using a BioTek automatic dispenser; centrifuged at 2500 rpm for 30 s, and reacted at 25° C. for 45 min.
d) Pirparation and addition of detection reagent: Streptavidin-XL665 (Cisbio, 610SAXLG) is diluted with HTRF KinEASE detection buffer (cisbio) from 16.67 μM to 250 nM (4×), and the final concentration is 62.5 nM; TK Antibody-Cryptate (Cisbio) is diluted with HTRF KinEASE detection buffer (cisbio) from 100× to 5×, and the final concentration is 1×; XL665 and Antibody are mixed in equal volume; the mixed solution is added to each well at 10 μL by using the BioTek automatic dispenser, centrifuged at 2500 rpm for 30 s, and reacted at 25° C. for 1 h. After the reaction is completed, the resulting product is detected by a multi-function plate reader HTR1p
GraphPad Prism 5 software log (inhibitor) vs. response-Variable slope is used to fit a dose-response curve to obtain the IC50 value of the compound to the inhibition of AXL kinase.
The calculation formula of the inhibition rate is as follows: […]
In general terms: Time-resolved FRET reads energy transfer from a long-lived donor to a nearby acceptor.

Molecules are shown by their SMILES.

The term IC50 denotes the concentration that inhibits the measured activity by half.

The compound `CP(C)(=O)c1cc(OC2CC2)ccc1Nc1nc(Nc2ccc3c(c2)CC[C@@H](N2CCCC2)CC3)ncc1Cl` [Example 128, (S)-(2-((5-chloro-2-((7-(pyrrolidin-1-yl)-6,7,8,9-tetrahydro-5H-benzo[7]annulen-2-yl)amino)pyrimidin-4-yl)amino)-5-cyclopropoxyphenyl)dimethyl phosphine oxide] returned a half-maximal inhibitory concentration (IC50) of 1.82 nM.

`O=S(=O)(c1ccccc1Nc1nc(Nc2ccc3c(c2)CC[C@@H](N2CCCC2)CC3)ncc1Cl)N1CCCC1` [Example 4, (S)-5-chloro-N^2-(7-(pyrrolidin-1-yl)-6,7,8,9-tetrahydro-5H-benzo[7]annulen-2-yl)-N^4-(2-(pyrrolidin-1-ylsulfo)phenyl)pyrimidine-2,4-diamine] came in with an IC50 of under 0.11 nM.

For the compound `Cc1cccc(Nc2nc(Nc3ccc4c(c3)CC[C@@H](N3CCCC3)CC4)ncc2Cl)c1P(C)(C)=O` [Example 113, (S)-(2-((5-chloro-2-((7-(pyrrolidin-1-yl)-6,7,8,9-tetrahydro-5H-benzo[7]annulen-2-yl)amino)pyrimidin-4-yl)amino)-6-methylphenyl) dimethyl phosphine oxide], the IC50 stood at 1.28 nM.

`COC(=O)c1ccncc1Nc1nc(Nc2ccc3c(c2)CC[C@@H](N2CCCC2)CC3)ncc1Cl` [Example 27]: half-maximal inhibition (IC50) required 19 nM.

As for `CP(C)(=O)c1cc(C2(C#N)CC2)ccc1Nc1nc(Nc2ccc3c(c2)CC[C@@H](N2CCCC2)CC3)ncc1Cl` [Example 140, (S)-1-(4-((5-chloro-2-((7-(pyrrolidin-1-yl)-6,7,8,9-tetrahydro-5H-benzo[7]annulen-2-yl)amino)pyrimidin-4-yl)amino)-3-(dimethylphosphoryl)phenyl)cyclopropane-1-carbonitrile], it took 2.91 nM to reach half-maximal inhibition (IC50).

The compound `CS(=N)(=O)c1ccccc1Nc1nc(Nc2ccc3c(c2)CC[C@@H](N2CCCC2)CC3)ncc1Cl` (stereo partly drawn) [Example 50, (2-((5-chloro-2-(((S)-7-(pyrrolidin-1-yl)-6,7,8,9-tetrahydro-5H-benzo[7]annulen-2-yl)amino)pyrimidin-4-yl)amino)phenyl)(imino)(methyl)-λ^6-sulfanone] displayed an IC50 of 2.16 nM.

`Cc1cc(Cl)cc(Nc2nc(Nc3ccc4c(c3)CC[C@@H](N3CCCC3)CC4)ncc2Cl)c1P(C)(C)=O` [Example 117, (S)-(4-chloro-2-((5-chloro-2-((7-(pyrrolidin-1-yl)-6,7,8,9-tetrahydro-5H-benzoannulen-2-yl)amino)pyrimidin-4-yl)amino)-6-methylphenyl)dimethyl phosphine oxide] registered an IC50 of 1.78 nM.

In turn, `N#CCc1cccc(Nc2nc(Nc3ccc4c(c3)CC[C@@H](N3CCCC3)CC4)ncc2Cl)c1` [Example 11, (S)-2-(3-((5-chloro-2-((7-(pyrrolidin-1-yl)-6,7,8,9-tetrahydro-5H-benzo[7]annulen-2-yl)amino)pyrimidin-4-yl)amino)phenyl)acetonitrile] returned an IC50 of 8.18 nM.

Compound `Clc1cnc(Nc2ccc3c(c2)CC[C@@H](N2CCCC2)CC3)nc1Nc1cccc2c1OCO2` [Example 9, (S)-4-(benzo[d][1,3]dioxo-4-yl)-5-chloro-2-(7-(pyrrolidin-1-yl)-6,7,8,9-tetrahydro-5H-benzo[7]annulen-2-yl)pyrimidine-2,4-diamine] displayed an IC50 of 21.9 nM.

Take `COc1cc(P(C)(C)=O)c(Nc2nc(Nc3ccc4c(c3)CC[C@@H](N3CCCC3)CC4)ncc2Cl)cc1C#N` [Example 136, (S)-(2-((5-chloro-2-((7-(pyrrolidin-1-yl)-6,7,8,9-tetrahydro-5H-benzo[7]annulen-2-yl)amino)pyrimidin-4-yl)amino)-4-cyano-5-methoxyphenyl)dimethyl phosphine oxide]: half-maximal inhibition (IC50) was put at 13.1 nM.

In the case of `CNC(=O)c1cc(P(C)(C)=O)ccc1Nc1nc(Nc2ccc3c(c2)CC[C@@H](N2CCCC2)CC3)ncc1Cl` [Example 79, (S)-2-((5-chloro-2-((7-(pyrrolidin-1-yl)-6,7,8,9-tetrahydro-5H-benzo[7]annulen-2-yl)amino)pyrimidin-4-yl)amino)-5-(dimethylphosphoryl)-N-methylbenzamide], the IC50 came to 1.05 nM.

Compound `CNC(=O)c1c(Nc2nc(Nc3ccc4c(c3)CC[C@@H](N3CCCC3)CC4)ncc2Cl)cc[nH]c1=O` [Example 42, (S)-4-((5-chloro-2-((7-(pyrrolidin-1-yl)-6,7,8,9-tetrahydro-5H-benzo[7]annulen-2-yl)amino)pyrimidin-4-yl)amino)-N-methyl-2-oxo-1,2-dihydropyridine-3-carboxamide] displayed an IC50 of 14.6 nM.

`CP(C)(=O)c1c(Nc2nc(Nc3ccc4c(c3)CC[C@@H](N3CCCC3)CC4)ncc2Cl)ccc(F)c1Cl` [Example 132, (S)-(2-chloro-6-((5-chloro-2-((7-(pyrrolidin-1-yl)-6,7,8,9-tetrahydro-5H-benzo [7]annulen-2-yl)amino)pyrimidin-4-yl)amino)-3-fluorophenyl)dimethyl phosphine oxide] had an IC50 of 2.36 nM.

In the case of `O=S(=O)(c1cccc(Nc2nc(Nc3ccc4c(c3)CC[C@@H](N3CCCC3)CC4)ncc2Cl)c1)N1CCCC1` [Example 5, (S)-5-chloro-N^2-(7-(pyrrolidin-1-yl)-6,7,8,9-tetrahydro-5H-benzo[7]annulen-2-yl)-N^4-(3-(pyrrolidin-1-ylsulfo)phenyl)pyrimidine-2,4-diamine], the 50% inhibitory concentration (IC50) amounted to 20.7 nM.

Regarding `CNC(=O)c1c(Nc2nc(Nc3ccc4c(c3)CC[C@@H](N3CCCC3)CC4)ncc2Cl)ccc2nccnc12` [Example 48, (S)-6-((5-chloro-2-((7-(pyrrolidin-1-yl)-6,7,8,9-tetrahydro-5H-benzo[7]annulen-2-yl)amino)pyrimidin-4-yl)amino)-N-methylquinoxaline-5-carboxamide], half-maximal inhibition (IC50) was put at 0.42 nM.

For the compound `COCCNC(=O)c1ccccc1Nc1nc(Nc2ccc3c(c2)CC[C@@H](N2CCCC2)CC3)ncc1Cl` [Example 38, (S)-2-((5-chloro-2-((7-(pyrrolidin-1-yl)-6,7,8,9-tetrahydro-5H-benzo[7]annulen-2-yl)amino)pyrimidin-4-yl)amino)-N-(2-methoxyethyl)benzamide], it took 6.24 nM to reach half-maximal inhibition (IC50).

`COC(C)(C)c1ccc(Nc2nc(Nc3ccc4c(c3)CC[C@@H](N3CCCC3)CC4)ncc2Cl)c(P(C)(C)=O)c1` [Example 139, (S)-(2-((5-chloro-2-((7-(pyrrolidin-1-yl)-6,7,8,9-tetrahydro-5H-benzo[7]annulen-2-yl)amino)pyrimidin-4-yl)amino)-5-(2-methoxypropan-2-yl)phenyl)dimethyl phosphine oxide] showed an IC50 of 2.53 nM.

On to `CN(C)C(=O)c1occc1Nc1nc(Nc2ccc3c(c2)CC[C@@H](N2CCCC2)CC3)ncc1Cl` [Example 7, (S)-3-((5-chloro-2-((7-(pyrrolidin-1-yl)-6,7,8,9-tetrahydro-5H-benzo[7]annulen-2-yl)amino)pyrimidin-4-yl)amino)-N,N-dimethylfuran-2-carboxamide], for which the IC50 stood at 7.74 nM.

`CP(C)(=O)c1cc(Br)ccc1Nc1nc(Nc2ccc3c(c2)CC[C@@H](N2CCCC2)CC3)ncc1Cl` [Example 110, (S)-(5-bromo 2-((5-chloro-2-((7-(pyrrolidin-1-yl)-6,7,8,9-tetrahydro-5H-benzo[7]annulen-2-yl)amino)pyrimidin-4-yl)amino)phenyl)dimethyl phosphine oxide]: it took 1.7 nM to reach half-maximal inhibition (IC50).

`CNC(=O)c1ncccc1Nc1nc(Nc2ccc3c(c2)CC[C@@H](N2CCCC2)CC3)ncc1Cl` [Example 33, (S)-3-((5-chloro-2-((7-(pyrrolidin-1-yl)-6,7,8,9-tetrahydro-5H-benzo[7]annulen-2-yl)amino)pyrimidin-4-yl)amino)-N-methylpicolinamide] came in with an IC50 of 5.15 nM.

(Values after US20230227484A1, “PYRIMIDINE COMPOUND AS AXL INHIBITOR” (NANJING CHIA TAI TIANQING PHARMACEUTICAL CO., LTD., priority 2020, published 2023).)
